The term IC50 denotes the concentration needed to halve the response being measured. A word on the melting point: it is the temperature of the solid-liquid transition.

Where two headings read alike, the source gives them in different places.

Consider 16 compounds from patent US8742173B2, “Phenolic hydrazone macrophage migration inhibitory factor inhibitors” (The Feinstein Institute for Medical Research, priority 2006, dated 2014).

Data set [1] deals with Balb/C mice. The following applies: Al-Abed et al., 2005; cited from earlier work.
The test system of data set [2] is LPS-treated macrophages. Particulars: cited from earlier work.
In data set [3] the target is T1, MIF (Homo sapiens, UniProt P14174).
T1 sequence (P14174 2-115 limits assumed): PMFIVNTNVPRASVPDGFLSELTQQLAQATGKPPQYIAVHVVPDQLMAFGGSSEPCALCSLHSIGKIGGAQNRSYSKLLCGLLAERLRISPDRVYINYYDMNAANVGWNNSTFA
The experiment in a line: Spectrophotometric assay of MIF tautomerase activity on L-dopachrome methyl ester. The format is biochemical.
Procedure: The inhibitors 3-15 were dissolved in DMSO at various concentrations (0.1-100 μM) and 1 μL was added to the cuvette with the MIF prior to the addition of the dopachrome.
The inhibitors were dissolved in DMSO at various concentrations (0.1-100 mM) and added to the cuvette with the MIF prior to the addition of the dopachrome.

Data set [4] has as its system Balb/C mice. Kind of data set: Cecal ligation and puncture (CLP) sepsis model, survival. The format is in vivo. Particulars: 4 mg/kg intraperitoneal, initiated 24 h after CLP, continued for 3 days; control 28%. The protocol: FIG. 4 is a graph of experimental results showing that the hydrazone compound 7 is protective after 24 h late treatment in a CLP model. Mice were injected intraperitoneally with compound 7 (“hydrazone”) (4 mg/kg) (n=13, p<0.01) or vehicle 24 h after CLP (n=13). A single injection was composed of 100 μg of Compound 7 (equivalent to 4 mg/kg) in 200 μL of 20% DMSO: 80% saline solution. Additional administrations of compound 7 (bi-daily) were given on days 2 and 3.
All animal experiments were approved by the Institutional Animal Care and Use Committee of the North Shore-Long Island Jewish Research Institute. Male Balb/C mice, ˜8 weeks old, were subjected to cecal ligation and puncture. Details of the CLP procedure has been carried out as follows: In anesthetized male Balb/C mice (ketamine 100 mg/kg and xylazine 8 mg/kg administered intramuscularly) the cecum was ligated and given a single puncture. Abdominal access was gained via a midline incision. The cecum was isolated and ligated with a 6-0 silk ligature below the ileocecal valve, and the cecum punctured once with a 22 G needle, stool (approximately 1 mm) extruded from the hole, and the cecum placed back into the abdominal cavity. The abdomen was closed with two layers of 6-0 Ethilon sutures. […] Animal survival was monitored for 14 days. […]

In data set [5] the test system is Swiss Webster male mice. Kind of data set: Carrageenan air pouch model, leukocyte recruitment. Format: in vivo. The following applies: oral administration; assessed by inhibition of leukocyte infiltration. As for the experimental part:
Air pouches were made according to standard procedures (Garcia-Ramallo et al., 2002) on Swiss Webster male mice (25-30 g) by injecting sterile air s.c. on day 0 (6 ml) and day 3 (3 ml). On day 6, animals were treated with vehicle (350 μl of 20% DMSO) or compound 7 (7 mg/kg) either intraperitoneal (i.p.) or gavage (oral) as indicated. After 15 min, the animals were challenged by injecting 1 ml 1% carrageenan (in PBS) into the air pouch cavity. Five hrs after carrageenan injection the animals were sacrificed, the pouches washed with PBS, exudate collected, and the total number of infiltrating cells quantitated.
In another experiment, air pouches were made as above. On day 6, animals were treated with vehicle (350 μl of 20% DMSO) or compound 7 (7 mg/kg, gavage) at the indicated times prior to sacrificing and cell harvesting. In all cases, 1% carrageenan was injected into the air pouch cavity 5 hrs before sacrificing.

The target in data set [6] is T1, MIF. Particulars: previously shown (Dios et al., 2002); read-out: IC50, L-amino acid Schiff bases, MIF tautomerase; cited from earlier work.
Where [7] appears, read: Table 1, L-dopachrome methyl ester substrate, read-out: IC50 for inhibition of MIF tautomerase activity.
The mark [8] stands for this setting: read-out: IC50, MIF tautomerase activity.
Where [9] appears, read: read-out: IC50, MIF tautomerase.

Take `COC(=O)CC1CC(c2ccc(O)cc2)=NO1` (stereo not drawn) [Compound 2, ISO-1]: in data set [1], the “survival in septic mice” value was “significantly improves survival”. Further, the “inhibition of LPS-induced TNF release” value is “not” in data set [2] (MIF null macrophages) and “dose-dependently inhibits” in data set [2] (wild-type macrophages). Compound `NN=Cc1ccc(O)cc1` [Compound 3] yielded a melting point of 248 to 250 °C. In data set [3] (setting [7]), the IC50 was over 500000 nM. Also, the IC50 in data set [3] (setting [8]) was over 500000 nM.

In the case of `CNN=Cc1ccc(O)cc1` [Compound 4], the melting point is 58 to 60 °C. Besides, the IC50 in data set [3] (setting [8]) amounted to 43000 nM. `Oc1ccc(C=NNc2ccccc2)cc1` [Compound 5] showed a melting point of 154 to 156 °C. The half-inhibitory concentration (IC50) in data set [3] (setting [8]) was 2600 nM. With `COc1ccc(NN=Cc2ccc(O)cc2)cc1` [Compound 6], the IC50 in data set [3] (setting [7]) was 480 nM. `COc1ccc(NN=Cc2ccc(O)c(F)c2)cc1` [Compound 7] had a survival rate in data set [4] of 65%. The IC50 in data set [3] (setting [9]) is 130 nM. The apparent biological half-life in data set [5] is 7-9 hours. With `COc1ccc(NN=Cc2ccc(O)c(Cl)c2)cc1` [Compound 8], the melting point fell in the range of 108 to 110 °C. Moreover, the IC50 in data set [3] (setting [9]) came out at 220 nM. Regarding `COc1ccc(NN=Cc2ccc(O)c(Br)c2)cc1` [Compound 9], the melting point is 135 to 137 °C. Besides, in data set [3] (setting [9]), the IC50 came out at 330 nM. As to `CN(N=Cc1ccc(O)cc1)c1ccccc1` [Compound 10], the melting point is 93 to 95 °C. For the same compound, in data set [3] (setting [8]), the IC50 worked out at 300000 nM. In turn, `CCOC(=O)NN=Cc1ccc(O)cc1` [Compound 12] returned a melting point of 189 to 190 °C. The same measure, in the same setting: the figure for `CC(C)(C)OC(=O)NN=Cc1ccc(O)cc1` [Compound 13] is 155 to 156 °C; for `O=C(NN=Cc1ccc(O)cc1)OCc1ccccc1` [Compound 14] it is 159 to 160 °C; for `COc1ccc(COC(=O)NN=Cc2ccc(O)cc2)cc1` [Compound 15] it is 147 to 148 °C. Turning to `CC(C)(C)OC(=O)NN=Cc1ccc(O)c(F)c1` [Compound 18], in data set [3] (Table 2, hydrazone carbamates, L-dopachrome methyl ester substrate, read-out: IC50 for inhibition of MIF tautomerase activity), the half-maximal inhibitory concentration (IC50) came to 2400 nM. As for `N[C@@H](Cc1ccccc1)C(=O)O` [L-phenylalanine], the IC50 in data set [6] is 50000 nM.

For the compound `N[C@@H](Cc1ccc(O)cc1)C(=O)O` [L-tyrosine], in data set [6], the IC50 was 10000 nM.
